From patent publication US20160106102A1, “KNOWN AND NEW HETEROCYCLIC COMPOUNDS AS PEST CONTROL AGENTS” (BAYER CROPSCIENCE AKTIENGESELLSCHAFT, priority 2013, published 2016) come the findings set out here.

Molecules are shown by their SMILES. Some results are limits rather than exact numbers.

One series relates to Myzus persicae. The series is described as follows: Myzus persicae - sachet test. As to conditions: application rate of 6 ppm in nutrient medium; 100% = all animals killed. The class given is in vivo. Put shortly:
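Green peach aphids feed through a sealed sachet on nutrient medium containing the water-diluted formulation (solvents: 2% N-methylpyrrolidone, 2% diacetone alcohol). Percent mortality read after the chosen time; 100% means all animals killed.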
In the case of `Cc1cc(NC(=O)c2cccnc2)nn1C(=O)NCc1ccc(F)cc1` [Compound I-1-328], the “efficacy (kill in %)” value is 100%.
As to `Cc1cc(NC(=O)c2cccnc2)nn1C(=O)NC(C)c1ccc(F)cc1` (centres unmarked) [Compound I-1-332], the “efficacy (kill in %)” value turned out to be 100%.
Same read-out and setting: the result for `Cc1cc(NC(=O)c2cccnc2)nn1C(=O)N1CCCC1` [Compound I-1-161] reads 80%.

Still in this series, the particulars now being: application rate of 30 ppm in nutrient medium; 100% = all animals killed.
On to `Cc1cc(NC(=O)c2cncc(F)c2)nn1C(C)(C)C` [Compound I-1-348], for which the “efficacy (kill in %)” value turned out to be 80%.
Still for that read-out and setting: with `O=C(Nc1ccn(Cc2ccccc2C(F)(F)F)n1)c1cccnc1` [Compound I-1-91] the figure was 100%.
For `Cc1cc(NC(=O)c2cnc(Cl)c(Cl)c2)nn1Cc1ccccc1` [Compound I-1-100], the “efficacy (kill in %)” value is on record as 100%.
With `Cc1cn(CC#N)nc1NC(=O)c1cccnc1` [Compound I-1-199], the “efficacy (kill in %)” value came to 100%.
`Cc1c(Br)c(NC(=O)c2cccnc2)nn1Cc1ncccn1` [Compound I-1-125]: the “efficacy (kill in %)” value was determined as 100%.
Take `Cc1cc(NC(=O)c2ccc(Cl)nc2)nn1Cc1ccc(F)cc1` [Compound I-1-95]: the “efficacy (kill in %)” value is given as 100%.
As for `O=C(Nc1nn(-c2ncccc2Cl)nc1C(F)(F)F)c1cccnc1` [Compound I-3-6], the “efficacy (kill in %)” value was 100%.
The same measure, in the same setting: the result for `Cc1cc(C)nc(-n2cnc(NC(=O)c3cccnc3)n2)n1` [Compound I-2-22] reads 80%.
Still for that read-out and setting: the result for `CNS(=O)(=O)n1nc(NC(=O)c2cccnc2)cc1C` [Compound I-1-257] reads 100%; that for `Cc1cc(NC(=O)c2cccnc2)nn1Cc1cn2nc(Cl)ccc2n1` [Compound I-1-351], 100%.
The same measure, in the same setting: with `Cc1cc(NC(=O)c2ccc(Cl)nc2)nn1Cc1ccccc1F` [Compound I-1-93] the figure was 100%; with `Cc1cc(NC(=O)c2cncc(F)c2)nn1-c1ccccc1` [Compound I-1-350], 80%; with `Cn1nnc(NC(=O)c2cccnc2)n1` [Compound I-4-2], 100%.
Consider `Cn1cnc(NC(=O)c2cccnc2)n1` [Compound I-2-14], for which the “efficacy (kill in %)” value was determined as 100%.
Take `O=C(Nc1ncn(Cc2cccc(Cl)c2)n1)c1cccnc1` [Compound I-2-19]: the “efficacy (kill in %)” value came out at 100%.
Same read-out and setting: with `Cc1ccc(C)c(Cn2ccc(NC(=O)c3cccnc3)n2)c1` [Compound I-1-81] the figure was 100%; with `Cc1cc(C)cc(-n2nc(NC(=O)c3cccnc3)cc2C)c1` [Compound I-1-208], 100%; with `Cc1cc(NC(=O)c2cccnc2)nn1C(=O)NCc1ccc(F)cc1` [Compound I-1-328], 100%.
The same measure, in the same setting: the result for `Cc1cc(NC(=O)c2cccnc2)nn1C(=O)NC(C)c1ccc(F)cc1` (centres unmarked) [Compound I-1-332] reads 100%; that for `Cc1cc(NC(=O)c2cccnc2)nn1C(=O)N1CCCC1` [Compound I-1-161], 100%; that for `Cc1cc(NC(=O)c2cncc(Br)c2)nn1Cc1ccc(F)cc1` [Compound I-1-83], 100%.
On the same count and under the same terms, with `Cc1cc(NC(=O)c2cncc(F)c2)nn1CC(F)(F)F` [Compound I-1-135] the figure was 100%.

Tested on in another series: not listed separately
The series is described as follows: log P determination by LC-MS in the acidic range. The class given is physicochemical. Particulars: LC-MS in the acidic range. The text has this:
The LC-MS determination in the acidic range is effected at pH 2.7 using 0.1% aqueous formic acid and acetonitrile (contains 0.1% formic acid) as eluents, linear gradient from 10% acetonitrile to 95% acetonitrile. Alternatively, the determination is effected in the acidic range at pH 2.3 using 0.1% aqueous phosphoric acid and acetonitrile as eluents; linear gradient from 10% acetonitrile to 95% acetonitrile.
Turning to `Cc1cc(NC(=O)c2cncc(F)c2)nn1C(C)(C)C` [Compound I-1-348], the “log P (acid)” value worked out at 2.13.
Turning to `O=C(Nc1ccn(Cc2ccccc2C(F)(F)F)n1)c1cccnc1` [Compound I-1-91], the “log P (acid)” value came out at 2.09.
The same measure, in the same setting: with `Cc1cc(NC(=O)c2cnc(Cl)c(Cl)c2)nn1Cc1ccccc1` [Compound I-1-100] the figure was 3.18; with `Cc1cn(CC#N)nc1NC(=O)c1cccnc1` [Compound I-1-199], 0.37.
As to `Cc1c(Br)c(NC(=O)c2cccnc2)nn1Cc1ncccn1` [Compound I-1-125], the “log P (acid)” value stood at 0.98.
In the case of `Cc1cc(NC(=O)c2ccc(Cl)nc2)nn1Cc1ccc(F)cc1` [Compound I-1-95], the “log P (acid)” value came out at 2.57.
Regarding `CNS(=O)(=O)n1nc(NC(=O)c2cccnc2)cc1C` [Compound I-1-257], the “log P (acid)” value was 0.55.
Still for that read-out and setting: the result for `Cc1cc(NC(=O)c2cccnc2)nn1Cc1cn2nc(Cl)ccc2n1` [Compound I-1-351] reads 1.42; that for `Cc1cc(NC(=O)c2ccc(Cl)nc2)nn1Cc1ccccc1F` [Compound I-1-93], 2.59; that for `Cc1cc(NC(=O)c2cncc(F)c2)nn1-c1ccccc1` [Compound I-1-350], 2.18.
On the same count and under the same terms, with `Cc1ccc(C)c(Cn2ccc(NC(=O)c3cccnc3)n2)c1` [Compound I-1-81] the figure was 2.11.
The same measure, in the same setting: with `Cc1cc(C)cc(-n2nc(NC(=O)c3cccnc3)cc2C)c1` [Compound I-1-208] the figure was 2.4.
`Cc1cc(NC(=O)c2cccnc2)nn1C(=O)NCc1ccc(F)cc1` [Compound I-1-328]: the “log P (acid)” value is recorded as 2.12.
Same read-out and setting: the result for `Cc1cc(NC(=O)c2cccnc2)nn1C(=O)NC(C)c1ccc(F)cc1` (centres unmarked) [Compound I-1-332] reads 2.28.
The same measure, in the same setting: the result for `Cc1cc(NC(=O)c2cccnc2)nn1C(=O)N1CCCC1` [Compound I-1-161] reads 1.29; that for `Cc1cc(NC(=O)c2cncc(Br)c2)nn1Cc1ccc(F)cc1` [Compound I-1-83], 2.67; that for `Cc1cc(NC(=O)c2cncc(F)c2)nn1CC(F)(F)F` [Compound I-1-135], 1.79.

Staying with this series, now noted: Table 2, compounds of the formula (I-2); acidic range pH 2.7 or pH 2.3.
With `Cc1cc(C)nc(-n2cnc(NC(=O)c3cccnc3)n2)n1` [Compound I-2-22], the “log P (acid)” value worked out at 0.86.
As to `Cn1cnc(NC(=O)c2cccnc2)n1` [Compound I-2-14], the “log P (acid)” value was under −0.23.
Same read-out and setting: the result for `O=C(Nc1ncn(Cc2cccc(Cl)c2)n1)c1cccnc1` [Compound I-2-19] reads 1.33.

Still in this series, the particulars now being: Table 3; HPLC on reversed-phase column (C 18), 55° C., acidic range (pH 2.7 or pH 2.3).
Take `O=C(Nc1nn(-c2ncccc2Cl)nc1C(F)(F)F)c1cccnc1` [Compound I-3-6]: the “log P (acid)” value is 1.89.

Staying with this series, now noted: Table 4; HPLC on reversed-phase column (C 18), 55° C., acidic range (pH 2.7 or pH 2.3).
In the case of `Cn1nnc(NC(=O)c2cccnc2)n1` [Compound I-4-2], the “log P (acid)” value is reported as under −0.23.
